Reference: patent publication US9237761B2, “Methods and diets for lowering glucose and/or IGF-1 levels” (priority 2013, dated 2016)

Experiments:
[1] = 24 mg/kg i.v., mice fed ad lib AIN93G
4T1 breast cancer = 4T1 breast cancer subcutaneous tumor progression with cisplatin; type: in vivo, BalB/C mice; conditions: three cycles, 12, 8, 8 mg/kg i.v. days 15, 33, 44
Description: Murine 4T1 breast cancer and GL26 glioma cells were maintained in DMEM (Invitrogen) supplemented with 10% fetal bovine serum (FBS) at 37° C. under 5% CO2. Cells in log phase growth were washed and suspended in PBS at 2×10^6 cells/mL and injected subcutaneously (s.c., 2×10^5 cells/mouse in 100 μL PBS) in the lower back region of the mouse. Tumor size was measured using a caliper. To mimic multi-cycle treatments in humans, mice were treated intravenously (i.v., lateral tail vein) with Cisplatin (Teva Parenteral Medicines Inc.) three times on days 15, 33 and 44 after tumor inoculation at 12, 8 and 8 mg/kg body weight, respectively. Mice were monitored daily and animals showing signs of severe stress, deteriorating health status or excess tumor load (2000 mm^3) were designated as moribund and euthanized.
The efficacy of STS in augmenting the treatment of various cancers is twofold: it protects against chemotherapy-induced toxicity to normal cells/tissues and sensitizes malignant cells to chemotherapeutic agents. […] To test whether a short-term intermittent 50% CR (ICR) diet could result in similar beneficial effects as the established fasting protocols, murine 4T1 breast cancer cells were implanted subcutaneously into female BalB/C mice and monitored the tumor progression. […]

Row | SMILES | survival by day 25 post injection [1] | tumor volume vs untreated mice (4T1 breast cancer)
1 | COc1cccc2c1C(=O)c1c(O)c3c(c(O)c1C2=O)C[C@@](O)(C(=O)CO)C[C@@H]3O[C@H]1C[C@H](N)[C@H](O)[C@H](C)O1 [DXR, Doxorubicin] | 16% | –
2 | N.N.[Cl][Pt][Cl] [cisplatin, Cisplatin] | – | approximately half the size
